These results are taken from PMC6278385, “Preclinical Pharmacokinetics of C118P, a Novel Prodrug of Microtubules Inhibitor and Its Metabolite C118 in Mice, Rats, and Dogs” (Molecules, 2018).

Where two headings read alike, the source gives them in different places.

A short description of data set [1]: PK in dogs after i.v. C118P. The data set is classed as in vivo, beagle dogs. The note with it: plasma; for AUC(0-inf) / half-life / clearance / concentration at 2 min: both sexes, beagle, dog; for AUC(0-inf) / half-life / clearance: iv; for concentration at 2 min: read-out: C2min. As for the experimental part: The beagle dogs were purchased from Nanjing Ya Dong experimental animal research center. Twelve beagle dogs with half males and half females were divided randomly into two groups. C118P was dissolved in saline to different concentrations for intravenous administration. After fasting overnight with free access to water, the dogs were administered a single intravenous dose of 1 or 3 mg/kg C118P. After a one-week wash-out period, the group of 1 mg/kg were administered another single intravenous dose of 6 mg/kg C118P. Blood samples (approximately 1 mL) were collected in EDTA-coated tubes at times of 0, 2, 5, 10, 20, 40 min, 1, 2, 4, 8, 12 and 24 h. Plasma was prepared by centrifugation at 8000 rpm for 5 min, and the plasma samples were then prepared and determined by the method described above.
The area under the plasma-concentration-versus-time curve from 0 to infinite (AUC0-inf), the elimination half-life (t1/2), the systemic plasma clearance (CL) and the volume of distribution (V) were calculated by non-compartmental analysis with WinNonlin software v6.3 (Pharsight Corporation, St. Louis, MO 63144, USA) from the plasma concentration data of C118P and C118, respectively. The instantaneous concentrations after intravenous to rats (C30s) or dogs (C2min) were obtained directly from the observed data.

A short description of data set [2]: Plasma protein binding by ultrafiltration.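 Also: fu expressed in percent not as a fraction.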 The note with it: Sprague-Dawley, rat plasma, read-out: fu (fraction unbound). The data set is classed as in vitro ADME, Sprague-Dawley rats. As for the experimental part: Both C118P and C118 were stable in the plasma with EDTA as anticoagulant. The non-specific binding to the ultrafilter membrane was negligible. The extent of plasma protein binding was reported as a fraction unbound (fu, %) value which was calculated using the formula fu = PF/TC × 100%, where TC is test compound (C118P or C118) concentration in sample before ultrafiltration, and PF is the test compound concentration in the ultrafiltrate (Table 1).
Plasma protein binding of C118P and C118 were determined by ultrafiltration at four concentrations (C118P: 400, 4000, 40,000, and 400,000 ng/mL, C118: 20, 200, 2000, and 20,000 ng/mL) in pooled plasma from Sprague-Dawley rats, beagle dogs, and humans. Stock solutions of C118P and C118 dissolved in methanol were diluted with blank plasma to achieve the test concentrations (the methanol volume is less than 10% of the plasma). The plasma was incubated for 1 h in a water bath at 37 °C. The total concentration of C118P and C118 of spiked plasma (TC) was analyzed by previously described methods. Ultrafiltration was performed with activated high speed centrifugal tubes (Millipore, Burlington, MA, USA). Plasma samples (0.4 mL) were added to the upper layer of the high speed centrifugal tubes, and then centrifuged at 12,000 g for 10 min. The concentration of unbound C118P and C118 in filtrate (PF) was similarly determined by the previously described methods. The percentage of free fraction (fu) of C118P and C118 was calculated as follows: fu = (PF/TC) × 100%.

The nature of data set [3]: Tandem two-compartment PK model of C118P and C118. The data set is classed as in vivo, rat. The following applies: for K12 / K21 / V1 / K10: rat; for K12 / K21 / V1: two-compartmental model parameter (Table S1); for K10: two-compartmental model, K10 supposed to be transformation rate of C118P into C118, simulated. The text has this: Due to the rapid transformation of C118P into C118, there is no direct way to calculate the rate of transformation, thus a two-compartment model with metabolism involved was developed (Figure S3). The transformation rate from C118P into C118 was simulated by fitting the two-serial data of prodrug C118P and C118 in rats and dogs.
3. The pharmacokinetic profile of C118P and C118 was simulated by two compartmental models. To simplify the model, the excretion rate of C118P from central compartment was supposed to be zero. In this model, both C118P and C118 were described by two-compartmental model, with elimination rate of k(0,3) for C118. The connection between C118P and C118 is by the uniflow of transformation rate of k(3,1) since the metabolism of C118P to C118 is irreversible(Figure S3).
Figure S3. The pharmacokinetic model of C118P and C118 in rat after i.v C118P. ex1: the injection dose of C118P, s1: concentration of C118 in central compartment. s2: concentration of C118 in central compartment, q1 and q3 represent the central compartment of C118P and C118, respectively.
The q2 and q4 represent the peripheral compartment of C118P and C118, respectively. k(0,3) represents the elimination rate of C118 from central compartment. k(3,1) represents the transformation rate of C118P to C118. k(2,1) and k(4,3) represent the distribution rate of C118P and C118 from central compartment to peripheral compartment. k(1,2) and k(3,4) represent the return rate of C118P and C118 from peripheral compartment to central compartment.
For prodrug pharmacokinetic prediction, the transformation of prodrug to the active drug should be studied in different system to get the right data. With the help of modeling, the transformation ratio of C118P to C118 was calculated by a tandem two-compartment model (SAAMII, University of Washington). In simulation study, the initial parameters are very important for accurate prediction.
The initial compartmental model parameters of rat and dog were first evaluated by Winnonlin using two-compartmental model at low dose, with intravenous for C118P and extra vessel for C118 since […]
(1 picture or pasted object on this page, not shown here)
C118 was transformed from C118P. The initial parameters used in the simulation were listed in Table S1. Using these parameters, the simulation of PK profiles of rat and dog are well fit to the data from in vivo at higher dose (Figure S4). The simulation of C118P and C118, the transformation rate of C118P to C118 is calculated and transformation ratio (k) is about 18.3671/h and12.588 1/h for rats and dogs, respectively.
Figure S4. The simulation of PK profile at 20 mg/kg in rat(A) and 6 mg/kg(B) in dog based on initial parameters calculated by Winnonlin. (s1 represent the simulated data for C118 and s2 represent the simulated data for C118P, plasma 1 represent the experimental data for C118 and plasma 2 represent the experimental data for C118P.) […]

The mark [4] stands for this setting: in vivo, dogs, i.v. C118P 1 mg/kg, n = 6.
The mark [5] stands for this setting: in vivo, dogs, i.v. C118P 3 mg/kg, n = 6.
[6] abbreviates: in vivo, dogs, i.v. C118P 6 mg/kg, n = 6.
[7] abbreviates: dogs, i.v. C118P 1 mg/kg, n = 6.
Where [8] appears, read: dogs, i.v. C118P 3 mg/kg, n = 6.
Setting [9] is: dogs, i.v. C118P 6 mg/kg, n = 6.

A word on the AUC(0-inf): it is the area under the concentration-time curve extrapolated to infinity. Lower therefore signals low exposure. Broadly, the half-life is how long it takes for the measured level to halve. The fraction unbound is free concentration divided by total concentration. Consider `COc1cc(OC)cc(-c2nc[nH]c2-c2ccc(OC)c(OP(=O)([O-])[O-])c2)c1.[Na+].[Na+]` [C118P], for which the total exposure AUC(0-inf) in data set [1] (setting [4]) was determined as 1700 ± 346 ng·h/mL; in data set [1] (setting [5]), 5300 ± 1700 ng·h/mL; in data set [1] (setting [6]), 8530 ± 1550 ng·h/mL. Moreover, the half-life in data set [1] (setting [4]) is 13.2 ± 5.4 min; in data set [1] (setting [5]), 35.4 ± 9.6 min; in data set [1] (setting [6]), 23.4 ± 7.2 min. For the same compound, the clearance in data set [1] (in vivo, dogs, i.v. C118P 1 mg/kg, n = 6, read-out: CL (converted)) is 10.2 mL/min/kg; in data set [1] (in vivo, dogs, i.v. C118P 3 mg/kg, n = 6, read-out: CL (converted)) it was 10.1 mL/min/kg; in data set [1] (in vivo, dogs, i.v. C118P 6 mg/kg, n = 6, read-out: CL (converted)), 12.1 mL/min/kg. In addition, the results for the concentration at 2 min in data set [1] (setting [4]), in data set [1] (setting [5]) and in data set [1] (setting [6]) were 12300 ng/mL, 34700 ng/mL and 64200 ng/mL, respectively. In addition, the V in data set [1] (setting [7]) came to 0.1817 ± 0.0513 L/kg; in data set [1] (setting [8]), 0.5092 ± 0.162 L/kg; in data set [1] (setting [9]) it was 0.3985 ± 0.0871 L/kg. For the same compound, the fraction unbound at 1 h, 400 ng/mL in data set [2] (C118P 400 ng/mL) was found to be 0.032 ± 0.001. For the same compound, the fraction unbound at 1 h, 4000 ng/mL in data set [2] (C118P 4000 ng/mL) was found to be 0.029 ± 0.001. Moreover, the fraction unbound at 1 h, 40000 ng/mL in data set [2] (C118P 40,000 ng/mL) stood at 0.024 ± 0.001. Further, in data set [2] (C118P 400,000 ng/mL), the fraction unbound at 1 h, 400000 ng/mL is 0.122 ± 0.006. For the same compound, in data set [3], the K12 stood at 6.535 h⁻¹. Also, the K21 in data set [3] was found to be 18.281 h⁻¹. This compound showed a V1 in data set [3] of 0.05441 L/kg. The compound further yielded a K10 in data set [3] of 18.369 h⁻¹. Also, the “transformation ratio (k) of C118P to C118” value in data set [3] (rats, simulated with tandem two-compartment model) was around 18.367 h⁻¹.

For the compound `COc1cc(OC)cc(-c2nc[nH]c2-c2ccc(OC)c(O)c2)c1` [C118], in data set [1] (intravenous, dogs, i.v. C118P 1 mg/kg, n = 6), the concentration at 2 min came out at 252 ± 70.5 ng/mL. Also, in data set [1] (intravenous, dogs, i.v. C118P 3 mg/kg, n = 6), the concentration at 2 min came to 861 ± 259 ng/mL. In addition, the concentration at 2 min in data set [1] (intravenous, dogs, i.v. C118P 6 mg/kg, n = 6) came out at 1700 ± 509 ng/mL. Besides, in data set [1] (setting [7]), the AUC(0-inf) was 214 ± 79 ng·h/mL and the half-life is 29.4 ± 10.8 min. Moreover, in data set [1] (setting [8]), the AUC(0-inf) stood at 910 ± 295 ng·h/mL and the half-life is 63 ± 16.2 min. In data set [1] (setting [9]), this compound had an AUC(0-inf) of 1830 ± 320 ng·h/mL and a half-life of 50.4 ± 15 min. Moreover, the clearance in data set [1] (in vivo, compared with extrapolated CLH, read-out: Observed CL) is 54 mL/min/kg. The fraction unbound at 1 h, 200 ng/mL in data set [2] (pooled plasma, C118 200 ng/mL) was 0.077 ± 0.008. In addition, the fraction unbound at 1 h, 2000 ng/mL in data set [2] (pooled plasma, C118 2000 ng/mL) was 0.065 ± 0.003. In addition, in data set [2] (pooled plasma, C118 20,000 ng/mL), the fraction unbound at 1 h, 20000 ng/mL came out at 0.055 ± 0.001. In data set [3], this compound gave a K12 of 0.3516 h⁻¹, a K21 of 0.0121 h⁻¹, a V1 of 2.708 L/kg and a K10 of 0.9897 h⁻¹.
